Columns and labels:
[1] = biological target: T1, Melanocyte-stimulating hormone receptor (Homo sapiens, UniProt Q01726); test: Agonist activity at human MC1R expressed in CHO cells assessed as stimulation of intracellular cAMP accumulation at 10 uM relative to alpha-MSH; type: functional, cell-based
Target sequence in this assay (Q01726 whole entry, looked up): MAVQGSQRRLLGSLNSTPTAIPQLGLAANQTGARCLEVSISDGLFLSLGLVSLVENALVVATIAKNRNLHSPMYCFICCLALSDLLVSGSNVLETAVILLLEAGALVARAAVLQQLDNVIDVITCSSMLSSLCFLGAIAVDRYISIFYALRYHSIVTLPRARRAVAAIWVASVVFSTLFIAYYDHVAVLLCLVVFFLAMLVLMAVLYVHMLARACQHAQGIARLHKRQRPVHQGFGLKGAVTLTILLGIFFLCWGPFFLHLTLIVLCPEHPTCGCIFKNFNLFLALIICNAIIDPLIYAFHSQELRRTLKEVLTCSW

Melanocortin receptor 4 [2] = biological target: T2, Melanocortin receptor 4 (Homo sapiens, UniProt P32245); test: Displacement of [125I]NDP-alpha-MSH from human MC4R expressed in CHO cells; type: cell-based
T2 sequence (P32245 whole entry): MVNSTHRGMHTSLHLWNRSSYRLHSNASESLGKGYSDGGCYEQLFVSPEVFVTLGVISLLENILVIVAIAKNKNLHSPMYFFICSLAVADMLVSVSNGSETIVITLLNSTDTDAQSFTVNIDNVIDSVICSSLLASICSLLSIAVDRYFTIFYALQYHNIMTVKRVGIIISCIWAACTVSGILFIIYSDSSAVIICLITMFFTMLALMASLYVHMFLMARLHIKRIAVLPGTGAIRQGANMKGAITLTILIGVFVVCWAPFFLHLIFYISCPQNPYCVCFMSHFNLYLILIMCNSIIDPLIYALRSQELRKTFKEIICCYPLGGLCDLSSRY

Melanocortin receptor 4 [3] = biological target: T2, Melanocortin receptor 4; test: Agonist activity at human MC4R expressed in CHO cells assessed as stimulation of intracellular cAMP accumulation; type: functional, cell-based
[4] = biological target: T1, Melanocyte-stimulating hormone receptor; test: Agonist activity at human MC1R expressed in CHO cells assessed as stimulation of intracellular cAMP accumulation; type: functional, cell-based
Target sequence in this assay (Q01726 whole entry): as the sequence (Q01726 whole entry, looked up) above

Melanocortin receptor 4 [5] = biological target: T2, Melanocortin receptor 4; test: Agonist activity at human MC4R expressed in CHO cells assessed as stimulation of intracellular cAMP accumulation at 10 uM relative to alpha-MSH; type: functional, cell-based
[6] = biological target: T1, Melanocyte-stimulating hormone receptor; test: Displacement of [125I]NDP-alpha-MSH from human MC1R expressed in CHO cells; type: cell-based
Target sequence in this assay (Q01726 whole entry): as the sequence (Q01726 whole entry, looked up) above

Melanocortin receptor 3 [7] = biological target: T3, Melanocortin receptor 3 (Homo sapiens, UniProt P41968); test: Displacement of [125I]NDP-alpha-MSH from human MC3R expressed in CHO cells; type: cell-based
T3 sequence (P41968 whole entry): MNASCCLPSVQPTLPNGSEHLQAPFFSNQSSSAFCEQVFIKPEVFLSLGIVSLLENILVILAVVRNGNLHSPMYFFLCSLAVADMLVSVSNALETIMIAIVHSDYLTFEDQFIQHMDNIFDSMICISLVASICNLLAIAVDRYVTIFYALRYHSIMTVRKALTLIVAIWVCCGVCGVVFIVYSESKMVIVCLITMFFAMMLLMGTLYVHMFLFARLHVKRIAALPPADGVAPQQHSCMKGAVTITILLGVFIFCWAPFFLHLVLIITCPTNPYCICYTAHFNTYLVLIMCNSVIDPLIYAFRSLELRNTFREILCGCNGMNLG

Melanocortin receptor 5 [8] = biological target: T4, Melanocortin receptor 5 (Homo sapiens, UniProt P33032); test: Displacement of [125I]NDP-alpha-MSH from human MC5R expressed in CHO cells; type: cell-based
T4 sequence (P33032 whole entry): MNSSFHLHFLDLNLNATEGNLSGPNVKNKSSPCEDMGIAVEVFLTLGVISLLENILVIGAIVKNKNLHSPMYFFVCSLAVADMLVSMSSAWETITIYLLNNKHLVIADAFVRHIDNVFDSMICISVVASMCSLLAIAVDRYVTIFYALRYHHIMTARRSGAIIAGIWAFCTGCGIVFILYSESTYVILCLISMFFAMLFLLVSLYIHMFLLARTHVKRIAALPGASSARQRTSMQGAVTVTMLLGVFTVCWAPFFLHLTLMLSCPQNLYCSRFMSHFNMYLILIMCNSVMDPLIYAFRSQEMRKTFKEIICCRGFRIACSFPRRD

Melanocortin receptor 3 [9] = biological target: T3, Melanocortin receptor 3; test: Agonist activity at human MC3R expressed in CHO cells assessed as stimulation of intracellular cAMP accumulation; type: functional, cell-based
Melanocortin receptor 3 [10] = biological target: T3, Melanocortin receptor 3; test: Agonist activity at human MC3R expressed in CHO cells assessed as stimulation of intracellular cAMP accumulation at 10 uM relative to alpha-MSH; type: functional, cell-based
Melanocortin receptor 5 [11] = biological target: T4, Melanocortin receptor 5; test: Agonist activity at human MC5R expressed in CHO cells assessed as stimulation of intracellular cAMP accumulation at 10 uM relative to alpha-MSH; type: functional, cell-based
Melanocortin receptor 3 [12] = biological target: Melanocortin receptor 3 (Rattus norvegicus, UniProt P32244); test: Agonist activity at rat MC3R expressed in CHO cells assessed as stimulation of intracellular cAMP accumulation; type: functional, cell-based
Melanocortin receptor 3 (Rattus norvegicus, UniProt P32244), sequence (P32244 whole entry): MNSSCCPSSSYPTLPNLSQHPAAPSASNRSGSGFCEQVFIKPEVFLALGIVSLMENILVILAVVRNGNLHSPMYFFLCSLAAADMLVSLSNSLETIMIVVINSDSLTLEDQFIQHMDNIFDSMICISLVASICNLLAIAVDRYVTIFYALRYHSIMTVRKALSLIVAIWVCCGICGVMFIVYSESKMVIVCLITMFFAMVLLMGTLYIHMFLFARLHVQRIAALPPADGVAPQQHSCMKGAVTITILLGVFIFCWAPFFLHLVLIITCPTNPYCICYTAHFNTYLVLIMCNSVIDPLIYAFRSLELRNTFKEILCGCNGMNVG

Melanocortin receptor 4 [13] = biological target: Melanocortin receptor 4 (Rattus norvegicus, UniProt P70596); test: Agonist activity at rat MC4R expressed in CHO cells assessed as stimulation of intracellular cAMP accumulation; type: functional, cell-based
Melanocortin receptor 4 (Rattus norvegicus, UniProt P70596), sequence (P70596 whole entry): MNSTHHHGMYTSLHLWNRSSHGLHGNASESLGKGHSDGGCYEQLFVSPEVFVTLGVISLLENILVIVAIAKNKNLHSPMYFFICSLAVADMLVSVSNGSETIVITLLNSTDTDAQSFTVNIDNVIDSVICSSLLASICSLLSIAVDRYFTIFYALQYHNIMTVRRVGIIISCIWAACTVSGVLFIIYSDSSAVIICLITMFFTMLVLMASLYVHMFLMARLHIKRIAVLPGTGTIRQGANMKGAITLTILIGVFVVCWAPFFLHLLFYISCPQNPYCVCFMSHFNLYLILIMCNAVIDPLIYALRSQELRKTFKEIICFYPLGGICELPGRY

Melanocortin receptor 4 [14] = biological target: Melanocortin receptor 4 (Mus musculus, UniProt P56450); test: Agonist activity at mouse MC4R expressed in CHO cells assessed as stimulation of intracellular cAMP accumulation; type: functional, cell-based
Melanocortin receptor 4 (Mus musculus, UniProt P56450), sequence (P56450 whole entry): as the sequence (P70596 whole entry) above, with H21Y, S36P, T199S, A239T, P329S, G330S counted along it

[15] = biological target: Melanocortin receptor 3 (Rattus norvegicus) (UniProt P32244); test: Agonist activity at rat MC3R expressed in CHO cells assessed as stimulation of intracellular cAMP accumulation at 10 uM relative to alpha-MSH; type: functional, cell-based
Melanocortin receptor 3 (Rattus norvegicus), sequence (P32244 whole entry): as the sequence (P32244 whole entry) above

[16] = biological target: Melanocortin receptor 4 (Rattus norvegicus) (UniProt P70596); test: Agonist activity at rat MC4R expressed in CHO cells assessed as stimulation of intracellular cAMP accumulation at 10 uM relative to alpha-MSH; type: functional, cell-based
Melanocortin receptor 4 (Rattus norvegicus), sequence (P70596 whole entry): as the sequence (P70596 whole entry) above

[17] = biological target: Melanocortin receptor 4 (Mus musculus) (UniProt P56450); test: Agonist activity at mouse MC4R expressed in CHO cells assessed as stimulation of intracellular cAMP accumulation at 10 uM relative to alpha-MSH; type: functional, cell-based
Melanocortin receptor 4 (Mus musculus), sequence (P56450 whole entry): as the sequence (P70596 whole entry) above, with H21Y, S36P, T199S, A239T, P329S, G330S counted along it

[18] = Bioavailability in Sprague-Dawley rat at 1 mg/kg, iv and 4 mg/kg, po; type: ADME, organism-based; conditions: in vivo
[19] = Clearance in Sprague-Dawley rat at 1 mg/kg, iv and 4 mg/kg, po; type: ADME, organism-based; conditions: in vivo
[20] = Volume of distribution at steady state in Sprague-Dawley rat at 1 mg/kg, iv and 4 mg/kg, po; type: ADME, organism-based; conditions: in vivo, read-out: Vdss
[21] = Half life in Sprague-Dawley rat at 1 mg/kg, iv and 4 mg/kg, po; type: ADME, organism-based; conditions: in vivo
[22] = Bioavailability in Beagle dog at 0.5 mg/kg, iv and 1.0 mg/kg, po; type: ADME, organism-based, Canis lupus familiaris; conditions: in vivo
[23] = Clearance in Beagle dog at 0.5 mg/kg, iv and 1.0 mg/kg, po; type: ADME, organism-based, Canis lupus familiaris; conditions: in vivo
[24] = Volume of distribution at steady state in Beagle dog at 0.5 mg/kg, iv and 1.0 mg/kg, po; type: ADME, organism-based, Canis lupus familiaris; conditions: in vivo, read-out: Vdss
[25] = Half life in Beagle dog at 0.5 mg/kg, iv and 1.0 mg/kg, po; type: ADME, organism-based, Canis lupus familiaris; conditions: in vivo
[26] = Bioavailability in rhesus monkey at 0.5 mg/kg, iv and 2 mg/kg, po; type: ADME, organism-based, Macaca mulatta; conditions: in vivo
[27] = Clearance in rhesus monkey at 0.5 mg/kg, iv and 2 mg/kg, po; type: ADME, organism-based, Macaca mulatta; conditions: in vivo
[28] = Volume of distribution at steady state in rhesus monkey at 0.5 mg/kg, iv and 2 mg/kg, po; type: ADME, organism-based, Macaca mulatta; conditions: in vivo, read-out: Vdss
[29] = Half life in rhesus monkey at 0.5 mg/kg, iv and 2 mg/kg, po; type: ADME, organism-based, Macaca mulatta; conditions: in vivo
Rattus norvegicus [30] = test: Erectogenic activity in rat assessed as spontaneous erections at 0.001 mg/kg, iv for 30 mins; type: functional
Rattus norvegicus [31] = test: Erectogenic activity in rat assessed as spontaneous erections at 0.01 mg/kg, iv for 30 mins; type: functional
Rattus norvegicus [32] = test: Erectogenic activity in rat assessed as spontaneous erections at 0.1 mg/kg, iv for 30 mins; type: functional
Rattus norvegicus [33] = test: Erectogenic activity in rat assessed as spontaneous erections at 1 mg/kg, iv for 30 mins; type: functional
Rattus norvegicus [34] = test: Erectogenic activity in rat assessed as spontaneous erections at 3 mg/kg, iv for 30 mins; type: functional
Rattus norvegicus [35] = test: Erectogenic activity in rat assessed as spontaneous erections at 1 ug/kg, iv for 30 mins; type: functional
Rattus norvegicus [36] = test: Erectogenic activity in iv dosed rat assessed as spontaneous erections measured for 30 mins; type: functional, organism-based
Rattus norvegicus [37] = test: Antiobesity activity in po dosed DIO rat assessed as decrease in food intake after 14 days
Rattus norvegicus [38] = test: Antiobesity activity in po dosed DIO rat assessed as decrease in body weight after 14 days

## CC(=O)NC(C)(C)[C@H]1CC2(CCN(C(=O)[C@H]3CN(C(C)(C)C)C[C@@H]3c3ccc(F)cc3F)CC2)c2cc(Cl)c(C)cc21
[1]
  Emax: 41%
Melanocortin receptor 4 [2]
  IC50: 39.7 nM
Melanocortin receptor 4 [3]
  EC50: 37.2 nM
[4]
  EC50: 620 nM
Melanocortin receptor 4 [5]
  Emax: 111%

## CC(=O)NC(C)(C)[C@@H]1CC2(CCN(C(=O)[C@H]3CN(C(C)(C)C)C[C@@H]3c3ccc(F)cc3F)CC2)c2cc(Cl)c(C)cc21
[1]
  Emax: 15%
Melanocortin receptor 4 [2]
  IC50: 89 nM
Melanocortin receptor 4 [3]
  EC50: 94 nM
Melanocortin receptor 4 [5]
  Emax: 107%

## CC(=O)NC(C)(C)[C@H]1CC2(CCN(C(=O)[C@@H]3CN(C(C)(C)C)C[C@H]3c3ccc(F)cc3F)CC2)c2cc(Cl)c(C)cc21
[1]
  Emax: 39%
Melanocortin receptor 4 [2]
  IC50: 4.3 nM
Melanocortin receptor 4 [3]
  EC50: 3.2 nM
[4]
  EC50: 228 nM
Melanocortin receptor 4 [5]
  Emax: 97%

## CC(=O)NC(C)(C)[C@@H]1CC2(CCN(C(=O)[C@@H]3CN(C(C)(C)C)C[C@H]3c3ccc(F)cc3F)CC2)c2cc(Cl)c(C)cc21
[1]
  Emax: 18%
[6]
  IC50: 1940 nM
Melanocortin receptor 3 [7]
  IC50: 890 nM
Melanocortin receptor 5 [8]
  IC50: 83.9 nM
Melanocortin receptor 3 [9]
  EC50: 351 nM
Melanocortin receptor 3 [10]
  Activity: 71%
Melanocortin receptor 5 [11]
  Activity: 9%
Melanocortin receptor 3 [12]
  EC50: 997 nM
Melanocortin receptor 4 [13]
  EC50: 2 nM
Melanocortin receptor 4 [14]
  EC50: 22 nM
[15]
  Activity: 97%
[16]
  Activity: 126%
[17]
  Activity: 197%
[18]
  bioavailability: 33%
[19]
  clearance: 12 mL/min/kg
[20]
  Vd: 5.1 L/kg
[21]
  half-life: 4.5 h
Melanocortin receptor 4 [2]
  IC50: 13 nM
Melanocortin receptor 4 [3]
  EC50: 4.9 nM
[4]
  EC50: 1020 nM
Melanocortin receptor 4 [5]
  Emax: 105%
[22]
  bioavailability: 71%
[23]
  clearance: 3.5 mL/min/kg
[24]
  Vd: 3.5 L/kg
[25]
  half-life: 11.2 h
[26]
  bioavailability: 53%
[27]
  clearance: 9.6 mL/min/kg
[28]
  Vd: 3.5 L/kg
[29]
  half-life: 3.9 h
Rattus norvegicus [30]
  Activity: 75%
Rattus norvegicus [31]
  Activity: 92%
Rattus norvegicus [32]
  Activity: 100%
Rattus norvegicus [33]
  Activity: 88%
Rattus norvegicus [34]
  Activity: 75%
Rattus norvegicus [35]
  Activity: 83%
Rattus norvegicus [36]
  Activity: Dose-dependent effect
Rattus norvegicus [37]
  Activity: Dose-dependent effect
Rattus norvegicus [38]
  Activity: Dose-dependent effect

— ChEMBL document CHEMBL1156330, “Discovery of a spiroindane based compound as a potent, selective, orally bioavailable melanocortin subtype-4 receptor agonist” (Bioorg Med Chem Lett, 2010)
